Experimental findings from ChEMBL document CHEMBL3632480, “Optimization of an indazole series of selective estrogen receptor degraders: Tumor regression in a tamoxifen-resistant breast cancer xenograft” (Bioorg Med Chem Lett, 2015) are described below.

In assay [1] the test system is MCF7. Description: Cytotoxicity against human MCF7 cells assessed as decrease in cell viability after 5 days by celltiterGlo assay. Particulars: MCF7, 120 h. It is filed as functional, cell-based.
The test system of assay [2] is MCF7. As to the kind of experiment: Decrease in estrogen receptor alpha level in human MCF7 cells after 4 hrs by in-cell western assay. The class given is functional, cell-based. Particulars: MCF7, 4 h.
Assay [3] relates to MCF7. Description: Decrease in estrogen receptor alpha level in human MCF7 cells after 4 hrs by in-cell western assay relative to fulvestrant. It is filed as functional. As to conditions: MCF7, 4 h.

`O=C(O)/C=C/c1ccc(/C(=C(\c2ccc(F)cc2Cl)C2CCC2)c2ccc3[nH]nc(F)c3c2)cc1`: the IC50 – broadly, the concentration that inhibits the measured activity by half – with MCF7 [1] worked out at 2 nM. Also, in the assay on MCF7 [2], the EC50 (as a rule, the concentration giving half of the maximal effect) was 0.6 nM. Further, in the assay on MCF7 [3], the Emax (usually the greatest response seen or fitted, relative to the assay's reference) was 91%.
Taken in the same sequence, the figures for `O=C(O)/C=C/c1ccc(/C(=C(\c2ccccc2)C2CCCCC2)c2ccc3[nH]ncc3c2)cc1` were 64 nM, 25 nM and 86%.
Turning to `CC/C(=C(/c1ccc(/C=C/C(=O)O)cc1)c1ccc2[nH]ncc2c1C)c1ccccc1`, the IC50 with MCF7 [1] came out at 50 nM. In addition, in the assay with MCF7 [2], the midpoint of the response, the EC50, lay at 13 nM. The compound also returned a maximum response (Emax) in the assay with MCF7 [3] of 90%.
For `O=C(O)/C=C/c1ccc(/C(=C(/CCO)c2ccccc2)c2ccc3[nH]ncc3c2)cc1`, the IC50 in the assay with MCF7 [1] was greater than 1000 nM. The same compound gave an EC50 in the assay with MCF7 [2] greater than 1000 nM.
Turning to `COC/C(=C(/c1ccc(/C=C/C(=O)O)cc1)c1ccc2[nH]ncc2c1)c1ccccc1`, in the assay with MCF7 [1], the IC50 was determined as 88 nM. Besides, the midpoint of the response with MCF7 [2], the EC50, lay at 35 nM. The compound further showed a maximum response (Emax) in the assay with MCF7 [3] of 86%.
For the compound `CC/C(=C(/c1ccc(/C=C/C(=O)O)cc1)c1cc(F)c2[nH]ncc2c1)c1ccccc1`, the IC50 in the assay with MCF7 [1] is 7.5 nM. For the same compound, the EC50 in the assay on MCF7 [2] was determined as 6.4 nM. Further, in the assay on MCF7 [3], the Emax was 92%.
For the compound `O=C(O)/C=C/c1ccc(/C(=C(\c2ccccn2)C2CCC2)c2ccc3[nH]nc(F)c3c2)cc1`, the IC50 with MCF7 [1] worked out at 22 nM. Also, the concentration giving a half-maximal response (EC50) with MCF7 [2] came out at 7.6 nM. This compound registered an Emax in the assay with MCF7 [3] of 90%.
Taken in the same sequence, the figures for `O=C(O)/C=C/c1ccc(/C(=C(\c2ccccc2)C2CC2)c2ccc3[nH]ncc3c2)cc1` were 13 nM, 2.8 nM and 89%.
`O=C(O)/C=C/c1ccc(/C(=C(\c2ccccc2)C2CCCC2)c2ccc3[nH]ncc3c2)cc1`: the IC50 in the assay with MCF7 [1] came to 10 nM. Besides, the 50% effective concentration (EC50) in the assay with MCF7 [2] is 9.3 nM. Moreover, in the assay on MCF7 [3], the Emax was 90%.
Take `CC/C(=C(/c1ccc(/C=C/C(=O)O)cc1)c1ccc2[nH]ncc2c1)c1ccccc1`: in the assay with MCF7 [1], the half-inhibitory concentration (IC50) turned out to be 7.2 nM. For the same compound, the Emax with MCF7 [3] was 90%.
With `CC/C(=C(/c1ccc(/C=C/C(=O)O)cc1)c1cc(C)c2[nH]ncc2c1)c1ccccc1`, the IC50 in the assay on MCF7 [1] was found to be 59 nM. Besides, in the assay on MCF7 [2], the response was half-maximal at 19 nM (EC50). For the same compound, in the assay on MCF7 [3], the maximal effect (Emax) was 89%.
Consider `O=C(O)/C=C/c1ccc(/C(=C(/CCCl)c2ccccc2)c2ccc3[nH]ncc3c2)cc1`, for which the IC50 in the assay on MCF7 [1] was found to be 9 nM. This compound also came in with an EC50 with MCF7 [2] of 1.4 nM. The compound also yielded an Emax in the assay on MCF7 [3] of 90%.
Take `O=C(O)/C=C/c1ccc(/C(=C(\c2ncc(F)cc2Cl)C2CCC2)c2ccc3[nH]nc(F)c3c2)cc1`: the IC50 with MCF7 [1] was found to be 1.7 nM. Moreover, the EC50 in the assay with MCF7 [2] stood at 0.6 nM. For the same compound, in the assay on MCF7 [3], the Emax came out at 89%.
On the same counts, the results for `C/C(=C(/c1ccc(/C=C/C(=O)O)cc1)c1ccc2[nH]ncc2c1)c1ccccc1` are 40 nM, 26 nM and 92%.
On the same counts, the results for `O=C(O)/C=C/c1ccc(/C(=C(\c2ccccc2)C2CCC2)c2ccc3[nH]ncc3c2)cc1` are 1.4 nM, 0.3 nM and 89%.
Take `CCCC/C(=C(/c1ccc(/C=C/C(=O)O)cc1)c1ccc2[nH]ncc2c1)c1ccccc1`: the IC50 in the assay on MCF7 [1] was 10 nM. It took 11 nM to reach a half-maximal effect in the assay with MCF7 [2] (EC50). For the same compound, the Emax in the assay with MCF7 [3] came to 92%.
For the compound `CC/C(=C(/c1ccc(/C=C/C(=O)O)cc1)c1cc(Cl)c2[nH]ncc2c1)c1ccccc1`, the IC50 in the assay on MCF7 [1] worked out at 56 nM. Moreover, a half-maximal response with MCF7 [2] (EC50) required 18 nM. In the assay on MCF7 [3], this compound came in with an Emax of 92%.
On the same counts, the results for `O=C(O)/C=C/c1ccc(/C(=C(\c2ccccc2)C(F)F)c2ccc3[nH]ncc3c2)cc1` are 14 nM, 4.7 nM and 91%.
On the same counts, the results for `CC/C(=C(/c1ccc(/C=C/C(=O)O)cc1)c1ccc2[nH]ncc2n1)c1ccccc1` are 33 nM, 20 nM and 88%.
Taken in the same sequence, the figures for `CC/C(=C(/c1ccc(/C=C/C(=O)O)cc1)c1ccc2[nH]ncc2c1OC)c1ccccc1` were 55 nM, 19 nM and 91%.
